This is an account of results in PubChem BioAssay AID1996.

In brackets after ≈: the same amount, converted by molar mass.

The conditions of this data set: buffer; pH 7.4; 200.0 µM.
As for `COC(=O)c1ccccc1CC1SC(N)=NC1=O` (centres undefined), the kinetic solubility was over 39.6 µg/mL. Next, `CC(=O)c1c(C)[nH]c(=S)c(C#N)c1-c1ccc(Cl)cc1`: over 45.4 µg/mL; `O=C(CN1c2cccc3cccc(c23)S1(=O)=O)Nc1ccccc1`: 0.4 µg/mL (≈ 1.18 µM). As for `Cc1ccc[n+](CC(=O)Nc2nc3ccccc3s2)c1.[Cl-]`, the kinetic solubility was over 48 µg/mL.

Take `COCCNS(=O)(=O)c1cc(OC)ccc1OC`: the solubility (kinetic) was over 41.3 µg/mL. As to `COc1cccc(C(=O)Nc2nc3ccccc3s2)c1`, the kinetic solubility was 1.6 µg/mL (≈ 5.63 µM). Next, `Cc1cc(C)c(S(=O)(=O)NC2CC2)c(C)c1`: over 35.9 µg/mL. In turn, `CC(=O)C1=C(O)C(=O)N(Cc2ccccc2)C1c1ccc(N(C)C)cc1` (centres undefined) had a kinetic solubility of 51.6 µg/mL (≈ 147 µM). Next, `Cc1cc(=O)oc2c(CN3CCN(CCO)CC3)c(O)ccc12`: over 47.8 µg/mL; `COc1ccccc1NC(=O)/C=C1\NC(=O)CS1`: over 39.6 µg/mL. Take `COc1ccc(C(CC(=O)Nc2nccs2)C(C)C)cc1` (centres undefined): the kinetic solubility was found to be 33.7 µg/mL (≈ 111 µM).

`COc1cccc(NC(=S)NC(=O)c2cccnc2)c1` gave a kinetic solubility of 40 µg/mL (≈ 139 µM). The value for `COc1ccc(NC(=O)Nc2c[nH]c(=O)[nH]c2=O)cc1` was 10 µg/mL (≈ 36.2 µM).

In the case of `CC(c1ccccc1)N1C(=O)OC(C)(C)C1(C)O` (centres undefined), the kinetic solubility was over 37.4 µg/mL.

Compound `C/C(=C\c1ccc(Br)cc1)C(=O)c1c(C)cc(C)[nH]c1=O` came in with a kinetic solubility of over 51.9 µg/mL. As for `C=CCn1c(O)c(C(C)=Nc2cccc(C(F)(F)F)c2)c(=O)[nH]c1=O`, the solubility (kinetic) was determined as 4 µg/mL (≈ 11.3 µM). Turning to `Cc1ccc(C(=O)NCCNC(=O)c2ccc(C)nc2)cc1`, the kinetic solubility was over 44.6 µg/mL. Next, `CCN(CC(=O)Nc1ccc2c(c1)OCCO2)C(=O)/C=C/c1cccc(C(F)(F)F)c1`: 3.6 µg/mL (≈ 8.29 µM); `CCCCOc1ccc(C(=O)N=c2sccn2C)cc1OC`: 35.7 µg/mL (≈ 111 µM); `O=C(COc1cccnc1[N+](=O)[O-])N1CCC(Cc2ccccc2)CC1`: 51.9 µg/mL (≈ 146 µM). Next, `CC(C)CNC(=O)COc1ncnc2sccc12`: over 39.8 µg/mL; `Cc1cccc(NCc2ccc([N+](=O)[O-])s2)c1`: 15.1 µg/mL (≈ 60.8 µM); `Cc1ccccc1CSCC(=O)Nc1ccccc1F`: 27.9 µg/mL (≈ 96.4 µM). The value for `CCOC(=O)CNC(=O)c1ccc(Cl)s1` was over 37.2 µg/mL; that for `CCS(=O)(=O)N1CCC(C(=O)NCc2ccc(OC)cc2)CC1` was over 51.1 µg/mL. The compound `O=C(Nc1ccc2c(c1)COC2=O)c1ccc(Cl)c(Cl)c1` yielded a kinetic solubility of 3.5 µg/mL (≈ 10.9 µM). The value for `CN(C(=O)CSc1cc(Cl)ccc1Cl)C1CCS(=O)(=O)C1` (centres undefined) was 53.7 µg/mL (≈ 146 µM); that for `CN1C(=O)[C@H](Cc2ccc([N+](=O)[O-])cc2)NC1=S` was 28.1 µg/mL (≈ 106 µM); that for `Cc1nc2ccc(NS(=O)(=O)c3ccc(F)c(C)c3)cc2[nH]1` was over 47.9 µg/mL. `COc1ccc(N2C(=O)C(F)(F)C2c2ccccc2F)cc1` (centres undefined) yielded a kinetic solubility of 0.8 µg/mL (≈ 2.6 µM). Consider `Cc1ccc(C)c(NC(=O)C2CCCN(c3cnccn3)C2)c1` (centres undefined), for which the kinetic solubility came out at 1.7 µg/mL (≈ 5.48 µM). Next, `Cc1ccc(NC(=O)CCNC(=O)c2ccco2)cc1F`: over 43.5 µg/mL. Compound `CC(=O)Nc1ccc(/C=C2\CCc3ccccc3C2=O)cc1` showed a solubility (kinetic) of 1.2 µg/mL (≈ 4.12 µM). `O=C(/C=C/c1ccc([N+](=O)[O-])cc1)OCC(=O)N1CCCCCC1`: the solubility (kinetic) turned out to be 18.9 µg/mL (≈ 56.9 µM).

In the case of `CC(NC(=O)C(=O)NCCc1c[nH]c2ccccc12)c1ccccc1` (centres undefined), the kinetic solubility is under 0.2 µg/mL. For `Cc1cc(C(=O)COC(=O)C2=COCCO2)c(C)n1-c1ccccc1`, the solubility (kinetic) came to 14.9 µg/mL (≈ 43.6 µM).

The compound `C[N+]1(C)CCCC(OC(=O)C(O)(c2ccccc2)c2ccccc2)C1.[Br-]` (centres undefined) gave a solubility (kinetic) of over 63.1 µg/mL. Compound `Cc1ccc2c(c1)[nH]c1c(=O)n(Cc3ccco3)cnc12` registered a kinetic solubility of 0.5 µg/mL (≈ 1.79 µM). Compound `CC1CCCC(NC(=O)COC(=O)c2cc3ccccc3oc2=O)C1C` (centres undefined) registered a kinetic solubility of 33.3 µg/mL (≈ 93.2 µM). Next, `O=S(=O)(c1cc(F)ccc1F)N1CCN(c2ccccn2)CC1`: 18.9 µg/mL (≈ 55.7 µM).

`CC(=O)N(c1cccc(Cl)c1)c1nc(C)cc(C)c1C#N` displayed a solubility (kinetic) of over 45 µg/mL. The value for `Cc1ccc(S(=O)(=O)CC(=O)N2CCN(c3ccc([N+](=O)[O-])cc3)CC2)cc1` was 24.7 µg/mL (≈ 61.2 µM); that for `O=C(CCN1C(=O)c2ccccc2S1(=O)=O)Nc1ccccc1F` was over 52.3 µg/mL.

`Cc1ccc2cc3cc(C(=O)NC4CCCCC4)oc3nc2c1`: the kinetic solubility was determined as 0.7 µg/mL (≈ 2.27 µM).

With `CC(=O)Nc1ccc(Nc2cc(C)nc3ccccc23)cc1`, the solubility (kinetic) was 40.2 µg/mL (≈ 138 µM). The value for `Cc1ccc(OCCCC(=O)NC(C)c2ccccc2)c(C)c1` (centres undefined) was 22.6 µg/mL (≈ 72.6 µM); that for `CC(C)C(NC(=O)CN1C(=O)c2cccc3cccc1c23)C(C)C` was 2.1 µg/mL (≈ 6.47 µM). The value for `CCC(C)(C)NC(=O)C(OC(=O)c1ccco1)c1ccccc1F` (centres undefined) was 22.1 µg/mL (≈ 66.3 µM); that for `O=C(O)CCCNC(=O)/C=C/c1ccco1` was 26.5 µg/mL (≈ 119 µM); that for `Cc1cccc(NC(=O)CN2C(=O)NC3(CCCCCCC3)C2=O)c1C` was 49 µg/mL (≈ 137 µM). The value for `COc1ccc(CN2CCC(C)CC2)cc1OCc1ccccc1` was 45.3 µg/mL (≈ 139 µM); that for `Cc1ccc(NC(=O)c2ccco2)c(NC(=O)COc2ccccc2)c1` was 5.3 µg/mL (≈ 15.1 µM); that for `CCOC(=O)Cn1cc(C#N)c2cccc(CC)c21` was 35.3 µg/mL (≈ 138 µM). With `Cn1c(SCC(=O)Nc2ccc3c(c2)OCCO3)nnc1-c1ccncc1`, the kinetic solubility is over 57.5 µg/mL. Next, `COc1cc(C(=O)NC(c2ccccc2)c2ccccc2)cc(OC)c1C`: under 0.8 µg/mL; `CC(C)c1ccc(NC(=O)C2C3C=CC(CC3)C2C(=O)O)cc1` (centres undefined): 3.2 µg/mL (≈ 10.2 µM); `FC(F)Oc1cccc(NC(=S)N2CCN(c3ccccn3)CC2)c1`: 2.3 µg/mL (≈ 6.31 µM). The value for `CC(C)(C)NC(=O)COC(=O)CCC(=O)c1cccs1` was over 44.6 µg/mL; that for `Cc1cccc(C)c1NC(=O)NC1(C(=O)NCc2ccncc2)CCCCC1` was over 57.1 µg/mL.

Take `Cc1cccc(OCCCCn2c(CO)nc3ccccc32)c1`: the solubility (kinetic) was 31.4 µg/mL (≈ 101 µM).

`COc1ccccc1CNS(=O)(=O)c1ccc(Cl)s1` returned a kinetic solubility of over 47.7 µg/mL.

Compound `O=C(COc1ccc(Cl)c2cccnc12)N1CCOCC1` returned a solubility (kinetic) of 42.5 µg/mL (≈ 139 µM). The value for `Cc1ccc2nc(C)c3c(c2c1)N(c1ccc(F)cc1)CC3` was 40.6 µg/mL (≈ 139 µM); that for `c1cncc(-c2csc(-c3cccnc3)n2)c1` was over 35.9 µg/mL. Turning to `COc1cccc(N2CCN(Cc3ccco3)CC2)c1`, the kinetic solubility stood at 30.8 µg/mL (≈ 113 µM). The value for `Nc1cc(N)nc(SCC(=O)NCc2ccc3c(c2)OCO3)n1` was over 50 µg/mL; that for `Cc1nc2ccccc2n1CC(O)c1ccccc1` (centres undefined) was 33.9 µg/mL (≈ 134 µM); that for `O=C(CN1C(=O)c2ccccc2S1(=O)=O)c1ccccc1F` was 17.8 µg/mL (≈ 55.7 µM).

On to `O=C(Nc1cc2c(cc1Br)OCCO2)c1ccc(=O)[nH]c1`, for which the solubility (kinetic) was over 52.7 µg/mL. The value for `CCN(Cc1nc2ccccc2n1C)c1ccccc1` was 30.7 µg/mL (≈ 116 µM).

Turning to `CCOC(=O)c1sc(=S)n(C)c1NC(=O)c1ccc(OC)cc1`, the kinetic solubility stood at 9.1 µg/mL (≈ 25.8 µM). On to `O=C(NCc1ccccc1)c1nccnc1CO`, for which the kinetic solubility is over 36.5 µg/mL.

`CC(=O)NC(Cc1c[nH]c2ccccc12)C(=O)NCCc1ccccc1` (centres undefined) registered a solubility (kinetic) of over 52.4 µg/mL. The value for `O=C(O)CC(CC(=O)Nc1ccc(C(=O)O)cc1)c1ccccc1` (centres undefined) was over 49.1 µg/mL; that for `Cc1ccccc1Nc1c(-c2cccnc2)nc2ccccn12` was 17.6 µg/mL (≈ 58.6 µM); that for `CCSc1nc2sc3c(c2c(=O)n1CC)CCC3` was 2.2 µg/mL (≈ 7.85 µM). The value for `COc1ccc(CCNC(=O)Nc2cccc([N+](=O)[O-])c2)cc1OC` was 39.8 µg/mL (≈ 115 µM). Next, `O=C(Cc1cccc2ccccc12)Nc1ccccc1Br`: under 0.7 µg/mL. `Cc1nnc(SCC(=O)NC(C)(C)C)n1NCc1cccc(Br)c1`: the kinetic solubility was over 61.9 µg/mL. Turning to `CC1(C)CC(NCc2ccccc2)CCO1.Cl` (centres undefined), the kinetic solubility was found to be 34.2 µg/mL. Compound `CCN(Cc1ccccc1)C(=O)CSc1nncn1C` displayed a kinetic solubility of over 43.6 µg/mL. `COc1cccc(-c2cc(C(=O)NCc3cccs3)no2)c1` registered a solubility (kinetic) of under 0.3 µg/mL. `CCOC(=O)C(=O)C1=CN(Cc2ccccc2)C=C(C#N)C1` displayed a kinetic solubility of over 44.4 µg/mL.

`CC1CCCC(NC(=O)COC(=O)Cc2ccc(Cl)cc2)C1C` (centres undefined) gave a kinetic solubility of 27.3 µg/mL (≈ 80.8 µM). The value for `Cc1ccccc1S(=O)Cc1ccc(C(=O)NC2CC2)o1` (centres undefined) was over 45.5 µg/mL. `CCc1ccc(OCCOC(=O)Nc2ccccc2)cc1` came in with a solubility (kinetic) of under 0.6 µg/mL.

Consider `CCOc1ccc(S(=O)(=O)NC2CCCC2)cc1C`, for which the kinetic solubility was over 42.5 µg/mL.

In the case of `COc1ccc(C2NC(=O)CCC2[N+](=O)[O-])c(OC)c1` (centres undefined), the solubility (kinetic) was over 42 µg/mL.

In the case of `COc1ccccc1NC(=S)NC12CN3CN(CN(C3)C1)C2`, the kinetic solubility amounted to 43.3 µg/mL (≈ 136 µM). With `Cc1cc(C)c(S(=O)(=O)Nc2ccncc2)cc1C`, the solubility (kinetic) came out at 19.2 µg/mL (≈ 69.5 µM). Next, `CSc1nsc(SCC(=O)Nc2ccc(OC(C)=O)cc2)n1`: 2.8 µg/mL (≈ 7.88 µM); `CCOc1ccc(C2=CSC3=NCCN23)cc1[N+](=O)[O-]`: 36.2 µg/mL (≈ 124 µM).

The compound `Cc1cccc(C(=O)OCC(=O)N2CCCCCC2)c1` gave a kinetic solubility of over 41.3 µg/mL. As for `CCCN(Cc1ccccc1)C(=S)Nc1cccc(C)c1C`, the kinetic solubility is under 0.3 µg/mL.

Regarding `O=C(C[n+]1ccccc1)Nc1ccccc1C(F)(F)F.[Cl-]`, the solubility (kinetic) is over 47.5 µg/mL.

`O=C(N1CCOCC1)N1CCN(S(=O)(=O)c2ccc(F)cc2)CC1` returned a solubility (kinetic) of over 53.6 µg/mL. `O=C(O)c1cccnc1SCc1ccccc1Cl` gave a kinetic solubility of over 42 µg/mL. In turn, `CS/C(N)=N/C(=S)Nc1cccc(Cl)c1` returned a kinetic solubility of 31.4 µg/mL (≈ 121 µM). The value for `Cc1ccc2c(NC(=O)c3ccco3)cccc2n1` was 37.2 µg/mL (≈ 147 µM); that for `COc1ccc(S(=O)(=O)NC2CCCC2)cc1Cl` was over 43.5 µg/mL.

`CCOC(=O)C1CCCN(CC(=O)c2c[nH]c3ccc(C)cc23)C1` (centres undefined): the kinetic solubility was found to be 46.5 µg/mL (≈ 142 µM).

On to `NC(=O)C1CCCN(C(=O)c2ccc3c(c2)NC(=O)CS3)C1` (centres undefined), for which the kinetic solubility was over 47.9 µg/mL. The value for `COc1ccc2[nH]c(C(=O)Nc3cccc(C)n3)cc2c1` was 1.9 µg/mL (≈ 6.75 µM); that for `Cc1ccccc1CSCC(=O)NCCSc1ccccn1` was 49.1 µg/mL (≈ 148 µM).
